“Also recorded” adds a separate entry of the source.
Legend:
Muscarinic M1 = Muscarinic M1 (Homo sapiens, UniProt P11229); assay: Eurofins radioligand binding
[1] = test system: fEPSPs in layer V medial prefrontal cortex (mPFC); assay: Slice electrophysiology, long-term depression of fEPSPs; design: species or system mouse; conditions: 10 μM; layer V recording, stimulation in layer II/III; n = 9
Method: While ago-PAMs induce substantial long-term depression that correlates with a lack of robust procognitive efficacy,[14],[16]−[21] […] Thus, PAM 5 maintains activity dependence of PFC function (Figure 3), and it is expected to display robust precognitive efficacy.
(A) Normalized time course of the fEPSP slope during baseline, application of 10 μM VU6045422 and washout. (B) Bar graph summarizing the averaged fEPSP slope during the last 5 min of washout (gray bar in panel (A)) compared to the baseline period (ns, p > 0.05, two-tailed paired t test, n = 9).

Muscarinic M3 = Muscarinic M3 (Homo sapiens, UniProt P20309); assay: Eurofins radioligand binding
[2] = test system: bacterial mutagenicity (4-strain with and without S9); assay: Bacterial mutagenicity mini-AMES assay; type: cell-based
[3] = Rat 14-day exploratory toxicology and toxicokinetic study; type: in vivo; conditions: rat 14-day study, plasma
Excerpt: To this end, we prepared a 200 g lot of PAM 5 and performed, in parallel, a dog maximum tolerated dose (MTD) with a pharmacokinetics study and a 14-day rat exploratory toxicology and toxicokinetic study, quantifying plasma Cmax and AUC for both parent 5 and metabolite 6. […] Moreover, while exposure increased with dose, it was nonlinear. […] The series was terminated based on (1) poor and less than dose-proportional increases in systemic exposure, (2) lack of a kinetic isotope effect to diminish production of 6 in dogs and rats, and (3) strong likelihood of even higher concentrations of 6 to be present in man.

[4] = molecular target: Nicotinic Acetylcholine α1, Bungarotoxin (Homo sapiens, UniProt P02708+P07510+Q07001); assay: Eurofins radioligand binding; conditions: read-out: % Inhibition at 10 µM
Bradykinin B1 = Bradykinin B1 (Homo sapiens, UniProt P46663); assay: Eurofins radioligand binding
Serotonin (5-HT3) = Serotonin (5-HT3) (Homo sapiens, UniProt P46098); assay: Eurofins radioligand binding
CYP = CYP induction; type: in vitro ADME; conditions: in words
[5] = molecular target: bile salt export pump (BSEP) (Homo sapiens, UniProt O95342); assay: Bile salt export pump inhibition; type: in vitro ADME
Dopamine D2S = Dopamine D2S (Homo sapiens, UniProt P14416); assay: Eurofins radioligand binding
[6] = molecular target: Nicotinic Acetylcholine α3β4 (Homo sapiens, UniProt P30926+P32297); assay: Eurofins radioligand binding
CYP 2D6 = CYP 2D6 (Homo sapiens, UniProt P10635); assay: CYP isoform contribution to metabolism: 2D6; type: in vitro ADME
Melatonin MT1 = Melatonin MT1 (Homo sapiens, UniProt P48039); assay: Eurofins radioligand binding
CYP 3A4 = CYP 3A4 (Homo sapiens, UniProt P08684); assay: CYP isoform contribution to metabolism: 3A4; type: in vitro ADME
[7] = molecular target: Transporter, Norepinephrine (NET) (Homo sapiens, UniProt P23975); assay: Eurofins radioligand binding
Neuropeptide Y Y2 = Neuropeptide Y Y2 (Homo sapiens, UniProt P49146); assay: Eurofins radioligand binding
Endothelin ETA = Endothelin ETA (Homo sapiens, UniProt P25101); assay: Eurofins radioligand binding
Sigma σ1 = Sigma σ1 (Homo sapiens, UniProt Q99720); assay: Eurofins radioligand binding
Muscarinic M2 = Muscarinic M2 (Homo sapiens, UniProt P08172); assay: Eurofins radioligand binding
[8] = test system: Purinergic P2Y, Non-Selective; assay: Eurofins radioligand binding; design: species or system Rat
Glutamate, NMDA, Glycine = assay: Eurofins radioligand binding; design: species or system Rat
Interleukin IL-1 R1 = Interleukin IL-1 R1 (Homo sapiens, UniProt P14778); assay: Eurofins radioligand binding
Dopamine D4.2 = assay: Eurofins radioligand binding; design: species or system Human
Adrenergic β2 = Adrenergic β2 (Homo sapiens, UniProt P07550); assay: Eurofins radioligand binding
[9] = GSH trapping in microsomes; type: in vitro ADME; conditions: rat, dog, cyno, and human microsomes
Adenosine A3 = Adenosine A3 (Homo sapiens, UniProt P0DMS8); assay: Eurofins radioligand binding
[10] = test system: GABAA, Flunitrazepam, Central; assay: Eurofins radioligand binding; design: species or system Rat
Adenosine A1 = Adenosine A1 (Homo sapiens, UniProt P30542); assay: Eurofins radioligand binding
Phorbol Ester = assay: Eurofins radioligand binding; design: species or system Mouse
GABAB1A = GABAB1A (Homo sapiens, UniProt Q9UBS5); assay: Eurofins radioligand binding
Serotonin (5-HT2B) = Serotonin (5-HT2B) (Homo sapiens, UniProt P41595); assay: Eurofins radioligand binding
Endothelin ETB = Endothelin ETB (Homo sapiens, UniProt P24530); assay: Eurofins radioligand binding
hERG = hERG (Homo sapiens, UniProt Q12809); assay: hERG manual patch clamp; type: cell-based
[11] = design: method as in PMID 39660766; conditions: rat hepatic microsomes; cited from earlier work

Chain of Endothelin ETA (P25101 21-427): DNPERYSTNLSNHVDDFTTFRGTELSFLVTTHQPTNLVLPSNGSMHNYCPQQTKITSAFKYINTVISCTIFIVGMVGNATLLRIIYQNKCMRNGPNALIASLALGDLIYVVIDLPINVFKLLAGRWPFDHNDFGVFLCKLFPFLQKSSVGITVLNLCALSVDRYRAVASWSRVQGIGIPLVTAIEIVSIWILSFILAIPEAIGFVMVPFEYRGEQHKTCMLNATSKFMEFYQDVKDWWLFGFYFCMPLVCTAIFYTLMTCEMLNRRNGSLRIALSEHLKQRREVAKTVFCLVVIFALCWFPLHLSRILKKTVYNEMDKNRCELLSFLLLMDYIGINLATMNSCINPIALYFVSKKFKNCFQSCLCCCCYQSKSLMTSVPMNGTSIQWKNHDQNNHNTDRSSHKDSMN
Chain of Neuropeptide Y Y2 (P49146 whole entry): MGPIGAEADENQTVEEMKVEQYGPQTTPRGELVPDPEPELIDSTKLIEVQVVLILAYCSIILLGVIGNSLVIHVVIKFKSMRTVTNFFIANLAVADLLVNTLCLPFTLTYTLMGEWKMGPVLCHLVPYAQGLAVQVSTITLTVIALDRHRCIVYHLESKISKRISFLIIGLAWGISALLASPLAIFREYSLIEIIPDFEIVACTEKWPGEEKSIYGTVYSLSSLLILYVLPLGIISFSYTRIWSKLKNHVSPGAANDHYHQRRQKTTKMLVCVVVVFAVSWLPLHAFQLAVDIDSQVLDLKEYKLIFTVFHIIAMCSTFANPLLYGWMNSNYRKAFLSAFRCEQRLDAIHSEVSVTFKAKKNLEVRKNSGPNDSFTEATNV
Chain of Transporter, Norepinephrine (NET) (P23975 whole entry): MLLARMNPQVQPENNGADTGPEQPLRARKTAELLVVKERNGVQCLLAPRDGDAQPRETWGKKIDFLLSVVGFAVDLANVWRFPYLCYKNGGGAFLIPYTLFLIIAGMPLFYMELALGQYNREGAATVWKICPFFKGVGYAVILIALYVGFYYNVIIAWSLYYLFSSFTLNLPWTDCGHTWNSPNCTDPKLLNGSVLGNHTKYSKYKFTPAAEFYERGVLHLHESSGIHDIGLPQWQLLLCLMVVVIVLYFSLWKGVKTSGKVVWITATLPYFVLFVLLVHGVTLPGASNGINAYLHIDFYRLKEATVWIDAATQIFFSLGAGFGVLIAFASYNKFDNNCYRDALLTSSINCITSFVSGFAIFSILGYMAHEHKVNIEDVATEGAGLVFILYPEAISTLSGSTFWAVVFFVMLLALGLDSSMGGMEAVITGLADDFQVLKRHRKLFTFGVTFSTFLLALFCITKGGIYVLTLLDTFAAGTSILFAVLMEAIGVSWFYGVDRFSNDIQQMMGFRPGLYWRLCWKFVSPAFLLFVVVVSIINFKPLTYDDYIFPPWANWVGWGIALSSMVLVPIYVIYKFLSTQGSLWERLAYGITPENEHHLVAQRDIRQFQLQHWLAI
Chain of hERG (Q12809 whole entry): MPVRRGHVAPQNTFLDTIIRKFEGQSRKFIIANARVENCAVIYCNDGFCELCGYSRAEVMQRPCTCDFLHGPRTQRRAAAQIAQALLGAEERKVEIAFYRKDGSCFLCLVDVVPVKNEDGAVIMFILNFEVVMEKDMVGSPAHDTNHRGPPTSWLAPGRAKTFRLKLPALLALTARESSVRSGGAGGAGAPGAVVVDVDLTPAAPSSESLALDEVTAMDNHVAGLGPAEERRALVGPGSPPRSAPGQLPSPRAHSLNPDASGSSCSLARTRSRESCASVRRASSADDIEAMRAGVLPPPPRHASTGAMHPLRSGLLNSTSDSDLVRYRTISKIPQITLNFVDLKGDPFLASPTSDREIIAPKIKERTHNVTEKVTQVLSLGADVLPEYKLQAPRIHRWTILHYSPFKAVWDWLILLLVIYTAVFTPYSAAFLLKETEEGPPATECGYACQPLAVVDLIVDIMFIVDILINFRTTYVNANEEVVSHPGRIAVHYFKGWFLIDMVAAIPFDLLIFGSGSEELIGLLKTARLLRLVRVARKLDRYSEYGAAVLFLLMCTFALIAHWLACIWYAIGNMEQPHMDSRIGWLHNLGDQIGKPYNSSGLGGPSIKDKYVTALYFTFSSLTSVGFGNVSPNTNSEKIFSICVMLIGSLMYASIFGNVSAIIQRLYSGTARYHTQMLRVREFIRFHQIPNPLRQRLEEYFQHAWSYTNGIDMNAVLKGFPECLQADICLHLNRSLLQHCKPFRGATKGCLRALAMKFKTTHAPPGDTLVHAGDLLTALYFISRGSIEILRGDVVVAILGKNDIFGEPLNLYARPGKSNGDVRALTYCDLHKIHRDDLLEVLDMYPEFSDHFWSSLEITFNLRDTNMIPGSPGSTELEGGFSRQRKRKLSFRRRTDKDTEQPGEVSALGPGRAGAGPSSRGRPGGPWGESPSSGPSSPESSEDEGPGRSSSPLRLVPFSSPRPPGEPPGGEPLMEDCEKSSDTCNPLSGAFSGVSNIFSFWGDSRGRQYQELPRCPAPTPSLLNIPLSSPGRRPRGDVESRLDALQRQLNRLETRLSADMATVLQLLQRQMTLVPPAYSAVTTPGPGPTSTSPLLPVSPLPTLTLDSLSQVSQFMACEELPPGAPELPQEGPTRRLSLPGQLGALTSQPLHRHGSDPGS
Chain of Adenosine A3 (P0DMS8 whole entry): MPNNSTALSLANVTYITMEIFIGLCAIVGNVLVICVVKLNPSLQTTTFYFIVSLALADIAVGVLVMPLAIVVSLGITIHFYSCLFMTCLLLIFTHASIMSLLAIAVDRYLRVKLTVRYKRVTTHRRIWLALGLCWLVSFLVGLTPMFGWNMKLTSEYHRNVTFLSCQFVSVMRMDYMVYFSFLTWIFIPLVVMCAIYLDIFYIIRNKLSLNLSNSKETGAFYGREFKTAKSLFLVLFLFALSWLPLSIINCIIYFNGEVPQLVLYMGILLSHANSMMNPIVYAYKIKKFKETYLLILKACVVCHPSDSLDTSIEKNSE
Chain of Dopamine D2S (P14416 1-414 isoform P14416-2): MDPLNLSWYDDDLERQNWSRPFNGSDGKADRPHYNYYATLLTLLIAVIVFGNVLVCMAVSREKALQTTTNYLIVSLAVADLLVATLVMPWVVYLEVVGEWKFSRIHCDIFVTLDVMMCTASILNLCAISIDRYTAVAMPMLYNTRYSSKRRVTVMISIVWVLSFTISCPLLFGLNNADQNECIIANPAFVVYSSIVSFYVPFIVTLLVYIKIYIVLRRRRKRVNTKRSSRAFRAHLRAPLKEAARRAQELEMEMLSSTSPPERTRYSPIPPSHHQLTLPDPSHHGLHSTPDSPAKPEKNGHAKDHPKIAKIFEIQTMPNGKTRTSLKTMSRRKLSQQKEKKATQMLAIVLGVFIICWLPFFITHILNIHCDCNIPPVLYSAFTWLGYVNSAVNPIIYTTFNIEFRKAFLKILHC
Chain of bile salt export pump (BSEP) (O95342 whole entry, species assumed): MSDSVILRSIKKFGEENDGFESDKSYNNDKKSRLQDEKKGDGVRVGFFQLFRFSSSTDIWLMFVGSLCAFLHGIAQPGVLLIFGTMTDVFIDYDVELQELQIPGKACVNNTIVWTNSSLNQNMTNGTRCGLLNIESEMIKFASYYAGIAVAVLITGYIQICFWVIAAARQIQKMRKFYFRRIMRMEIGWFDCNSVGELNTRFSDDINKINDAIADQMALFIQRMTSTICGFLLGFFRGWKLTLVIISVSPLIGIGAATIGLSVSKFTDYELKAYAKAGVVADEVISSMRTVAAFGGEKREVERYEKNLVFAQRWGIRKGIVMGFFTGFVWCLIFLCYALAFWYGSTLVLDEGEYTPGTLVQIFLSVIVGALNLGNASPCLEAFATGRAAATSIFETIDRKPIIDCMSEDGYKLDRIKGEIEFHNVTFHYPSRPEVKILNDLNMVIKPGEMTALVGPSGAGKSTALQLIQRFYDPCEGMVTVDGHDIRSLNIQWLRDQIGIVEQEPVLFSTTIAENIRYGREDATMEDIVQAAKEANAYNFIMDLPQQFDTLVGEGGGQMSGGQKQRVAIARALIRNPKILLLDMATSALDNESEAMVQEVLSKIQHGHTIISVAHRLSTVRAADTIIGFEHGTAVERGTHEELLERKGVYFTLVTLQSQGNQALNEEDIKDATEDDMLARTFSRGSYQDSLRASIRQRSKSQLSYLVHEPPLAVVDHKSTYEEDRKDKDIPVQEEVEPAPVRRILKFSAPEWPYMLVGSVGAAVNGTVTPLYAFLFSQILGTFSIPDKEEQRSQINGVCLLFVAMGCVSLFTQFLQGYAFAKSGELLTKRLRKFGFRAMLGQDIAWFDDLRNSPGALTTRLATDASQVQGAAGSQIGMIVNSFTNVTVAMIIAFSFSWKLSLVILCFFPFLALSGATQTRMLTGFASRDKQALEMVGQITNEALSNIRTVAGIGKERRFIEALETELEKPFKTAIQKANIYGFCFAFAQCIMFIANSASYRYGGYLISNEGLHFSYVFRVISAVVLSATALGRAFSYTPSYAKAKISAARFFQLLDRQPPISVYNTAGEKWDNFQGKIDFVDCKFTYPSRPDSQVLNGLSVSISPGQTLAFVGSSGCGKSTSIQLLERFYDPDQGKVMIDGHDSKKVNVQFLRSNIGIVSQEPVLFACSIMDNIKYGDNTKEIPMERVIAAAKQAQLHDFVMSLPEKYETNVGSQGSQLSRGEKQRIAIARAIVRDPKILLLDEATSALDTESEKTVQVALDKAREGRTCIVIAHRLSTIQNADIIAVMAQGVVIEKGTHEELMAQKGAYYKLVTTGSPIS
Chain of Adenosine A1 (P30542 whole entry): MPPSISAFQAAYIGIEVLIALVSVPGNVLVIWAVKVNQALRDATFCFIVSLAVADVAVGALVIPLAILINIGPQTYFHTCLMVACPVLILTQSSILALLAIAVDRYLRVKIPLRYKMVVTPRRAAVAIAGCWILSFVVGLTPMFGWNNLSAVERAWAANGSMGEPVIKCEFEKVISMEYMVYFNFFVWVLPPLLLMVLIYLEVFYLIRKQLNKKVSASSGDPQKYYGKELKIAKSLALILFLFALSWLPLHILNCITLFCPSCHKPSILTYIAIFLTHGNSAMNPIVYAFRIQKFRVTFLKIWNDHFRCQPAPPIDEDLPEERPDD

SMILES: [2H]C1([2H])c2ncccc2C(=O)N1Cc1c(F)cc(-c2cccc3nn(C([2H])([2H])[2H])cc23)cc1F [compound 5]
- inhibition at 10 µM (Muscarinic M1): 0%
- change in fEPSPs / long-term depression [1]: no significant changes; also recorded: did not induce a significant long-term depression
- inhibition at 10 µM (Muscarinic M3): -10%
- bacterial mutagenicity mini-AMES result [2]: negative
- AUC at 14 days ([3]; day 14, 300 mg/kg PO of 5): 321 µg·h/mL
- Cmax at 14 days ([3]; day 14, 300 mg/kg PO of 5): 22200 ng/mL
- AUC at 14 days ([3]; day 14, 750 mg/kg PO of 5): 536 µg·h/mL
- Cmax at 14 days ([3]; day 14, 750 mg/kg PO of 5): 31300 ng/mL
- AUC at 14 day ([3]; day 14, 1500 mg/kg PO of 5): 518 µg·h/mL
- Cmax at 14 days ([3]; day 14, 1500 mg/kg PO of 5): 30700 ng/mL
- inhibition at 10 µM [4]: 8%
- inhibition at 10 µM (Bradykinin B1): 13%
- inhibition at 10 µM (Serotonin (5-HT3)): -9%
- CYP induction liability (CYP): no time-dependent CYP inhibition or CYP induction liabilities
- IC50 [5]: 42.3 µM
- inhibition at 10 µM (Dopamine D2S): 2%
- inhibition at 10 µM [6]: -7%
- contribution of CYP 2D6 to metabolism (CYP 2D6): 1.6%
- inhibition at 10 µM (Melatonin MT1): 5%
- contribution of CYP 3A4 to metabolism (CYP 3A4): 92.6%
- inhibition at 10 µM [7]: 12%
- inhibition at 10 µM (Neuropeptide Y Y2): -3%
- inhibition at 10 µM (Endothelin ETA): -4%
- inhibition at 10 µM (Sigma σ1): 11%
- inhibition at 10 µM (Muscarinic M2): 5%
- % Inhibition at 10 µM [8]: 9%
- % Inhibition at 10 µM (Glutamate, NMDA, Glycine): -8%
- inhibition at 10 µM (Interleukin IL-1 R1): 8%
- % Inhibition at 10 µM (Dopamine D4.2): 13%
- inhibition at 10 µM (Adrenergic β2): -1%
- conjugation in GSH trapping studies [9]: < 0.1%
- inhibition at 10 µM (Adenosine A3): 12%
- % Inhibition at 10 µM [10]: 0%
- inhibition at 10 µM (Adenosine A1): 30%
- % Inhibition at 10 µM (Phorbol Ester): 5%
- inhibition at 10 µM (GABAB1A): -5%
- inhibition at 10 µM (Serotonin (5-HT2B)): 10%
- inhibition at 10 µM (Endothelin ETB): 1%
- IC50 (hERG): 21 µM

SMILES: Cn1cc2c(-c3cc(F)c(CN4Cc5ncccc5C4=O)c(F)c3)cccc2n1 [compound 1]
- rat CLhep [11]: 5.7 mL/min/kg
